These results are taken from ChEMBL document CHEMBL1127216, “Diastereoselective synthesis of cyclopropyl phenylalanines and their incorporation into dipeptides” (Bioorg Med Chem Lett, 1993).

The target in assay [1] is T1, Cholecystokinin receptor type A (Rattus norvegicus, UniProt P30551).
T1 sequence (P30551 whole entry): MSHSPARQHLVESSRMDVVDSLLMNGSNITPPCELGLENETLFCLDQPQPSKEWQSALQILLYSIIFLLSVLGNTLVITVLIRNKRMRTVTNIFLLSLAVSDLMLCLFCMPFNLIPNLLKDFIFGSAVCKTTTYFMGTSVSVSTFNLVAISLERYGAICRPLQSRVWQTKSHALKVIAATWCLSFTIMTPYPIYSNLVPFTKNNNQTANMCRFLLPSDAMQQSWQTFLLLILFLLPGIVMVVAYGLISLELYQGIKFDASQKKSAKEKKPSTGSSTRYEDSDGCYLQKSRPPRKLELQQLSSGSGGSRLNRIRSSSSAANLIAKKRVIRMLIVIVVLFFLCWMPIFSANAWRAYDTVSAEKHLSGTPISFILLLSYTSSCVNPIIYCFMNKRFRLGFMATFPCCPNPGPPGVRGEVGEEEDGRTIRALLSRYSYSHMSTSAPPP
Put plainly: Compound was tested for the inhibition of specific binding of [125I]bolton Hunter CCK-8 to Cholecystokinin type A receptor in the rat pancreas.

The target of assay [2] is T2, Gastrin/cholecystokinin type B receptor (Mus musculus, UniProt P56481).
T2 sequence (P56481 whole entry): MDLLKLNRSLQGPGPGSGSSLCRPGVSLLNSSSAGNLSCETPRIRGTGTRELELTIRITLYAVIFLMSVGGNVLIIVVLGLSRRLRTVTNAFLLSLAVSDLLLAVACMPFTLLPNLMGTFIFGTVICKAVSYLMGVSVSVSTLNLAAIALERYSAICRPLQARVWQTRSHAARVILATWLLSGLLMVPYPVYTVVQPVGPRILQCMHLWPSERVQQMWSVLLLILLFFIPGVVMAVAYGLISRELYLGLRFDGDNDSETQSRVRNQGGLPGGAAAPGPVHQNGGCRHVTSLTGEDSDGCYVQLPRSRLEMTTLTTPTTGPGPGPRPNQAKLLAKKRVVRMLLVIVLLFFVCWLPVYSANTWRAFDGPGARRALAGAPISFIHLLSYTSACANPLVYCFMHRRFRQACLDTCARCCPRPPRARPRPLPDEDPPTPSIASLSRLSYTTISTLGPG
Put plainly: Compound was tested for the inhibition of specific binding of [125I]bolton Hunter CCK-8 to Cholecystokinin type B receptor in mouse cerebral cortex. It is filed as tissue-based.

For `COC(=O)[C@@]1(NC(=O)[C@@](C)(Cc2c[nH]c3ccccc23)NC(=O)OC2C3CC4CC(C3)CC2C4)C[C@H]1c1ccccc1` (some centres undefined), the IC50 (in general, the midpoint of a concentration-inhibition curve) in assay [1] is 26 nM; in assay [2], 3.9 nM.
`COC(=O)/C(=C/c1ccccc1)NC(=O)[C@@](C)(Cc1c[nH]c2ccccc12)NC(=O)OC1C2CC3CC(C2)CC1C3` (some centres undefined) displayed an IC50 in assay [2] of 270 nM.
As for `C[C@](Cc1c[nH]c2ccccc12)(NC(=O)OC1C2CC3CC(C2)CC1C3)C(=O)N[C@@]1(C(=O)O)C[C@H]1c1ccccc1` (some centres undefined), the concentration for half-maximal inhibition (IC50) is 84 nM in assay [1] and 140 nM in assay [2].
In the case of `C[C@](Cc1c[nH]c2ccccc12)(NC(=O)OC1C2CC3CC(C2)CC1C3)C(=O)N/C(=C\c1ccccc1)C(=O)O` (some centres undefined), the half-inhibitory concentration (IC50) in assay [1] worked out at 60 nM; in assay [2], 54 nM.
Turning to `COC(=O)[C@]1(NC(=O)[C@@](C)(Cc2c[nH]c3ccccc23)NC(=O)OC2C3CC4CC(C3)CC2C4)C[C@H]1c1ccccc1` (some centres undefined), the values for the IC50 in assay [1] and in assay [2] were 720 nM and 600 nM, respectively.
